# Results as given in patent US20190133128A1, “Fungicidal pyridazinones” (FMC Corporation, priority 2017, published 2019).
# Marks after values point to notes of the source that are not given here.
# Columns and labels:
# Format in all cases: in vivo
# Phytophthora infestans = assay: whole plant or invertebrate; conditions: tomato seedlings
# [1] = system: Puccinia recondita f. sp. tritici; assay: Test F: preventive spray on wheat seedlings, wheat leaf rust, visual disease rating
# Excerpt: (§1) General protocol for preparing test solutions for Tests AG: the test compounds were first dissolved in acetone in an amount equal to 3% of the final volume and then suspended at the desired concentration (in ppm) in acetone and purified water (50/50 mix by volume) containing the surfactant PEG400 (polyhydric alcohol esters). The resulting test suspensions were then used in Tests AG. Compounds were sprayed at a concentration of 250 ppm or other indicated rate to the point of run-off on the test plants. The test solution was sprayed to the point of run-off on wheat seedlings. The following day the seedlings were inoculated with a spore suspension of Puccinia recondita f. sp. tritici; […] A dash (-) indicates no test results.
# Botrytis cinerea = assay: Test C: preventive spray on tomato seedlings, gray mold, visual disease rating
# Excerpt: as §1, with “tomato” for “wheat”, “seedlings.” for “seedlings. The following day the seedlings were inoculated with a spore suspension of Puccinia recondita f. sp. tritici;”
# [2] = system: Erysiphe graminis f. sp. tritici; assay: Test G: preventive spray on wheat seedlings, wheat powdery mildew, visual disease rating
# Excerpt: as §1, with “seedlings.” for “seedlings. The following day the seedlings were inoculated with a spore suspension of Puccinia recondita f. sp. tritici;”
# Phakopsora pachyrhizi = assay: Test A: preventive spray on soybean seedlings, Asian soybean rust, visual disease rating; conditions: 250 ppm, 100 = 100% disease control, 0 = no control
# Zymoseptoria tritici = assay: Test E: preventive spray on wheat seedlings, wheat leaf blotch, visual disease rating
# Excerpt: as §1, with “seedlings.” for “seedlings. The following day the seedlings were inoculated with a spore suspension of Puccinia recondita f. sp. tritici;”
# [3] = 250 ppm, 100 = 100% disease control, 0 = no control
SMILES,Test D disease control rating (Phytophthora infestans; 200 ppm),Test F disease control rating ([1]; 200 ppm),Test C disease control rating (Botrytis cinerea; 200 ppm),Test G disease control rating ([2]; 200 ppm),further results
Cn1ncc(O)c(C(=O)Nc2cccc(F)c2)c1=O [Compound 25],0* %,89%,0%,0%,–
Cn1ncc(O)c(C(=O)Nc2ccccc2Cl)c1=O [Compound 10],0%,97%,99%,0%,–
Cn1ncc(OS(C)(=O)=O)c(C(=O)Nc2ncc(Cl)cn2)c1=O [Compound 95],–,–,–,–,"Test D disease control rating (Phytophthora infestans; [3]): 0%; Test F disease control rating [1, 3]: 68%; Test C disease control rating (Botrytis cinerea; [3]): 0%; Test G disease control rating [2, 3]: 0%; Test A disease control rating (Phakopsora pachyrhizi): 73%"
O=C(Nc1ccc(Cl)nc1)c1c(O)cnn(-c2ccccc2)c1=O [Compound 14],0%,98%,90%,0%,–
Cn1ncc(O)c(C(=O)Nc2ccc(Cl)cc2C#N)c1=O [Compound 24],0%,91%,99%,0%,–
Cn1ncc(O)c(C(=O)NCc2ccc(Cl)cc2)c1=O [Compound 22],–,–,–,–,Test D disease control rating (Phytophthora infestans; 40 ppm): 0%; Test F disease control rating ([1]; 40 ppm): 41%; Test C disease control rating (Botrytis cinerea; 40 ppm): 0%; Test G disease control rating ([2]; 40 ppm): 0%
Cn1ncc(O)c(C(=O)Nc2ccc(Cl)c(Cl)c2)c1=O [Compound 17],57%,99%,0%,0%,–
Cc1nn(C)c(=O)c(C(=O)Nc2ccc(OC(F)(F)F)cc2)c1O [Compound 3],0%,0%,0%,37%,Test E disease control rating (Zymoseptoria tritici; 200 ppm): 0%
Cn1ncc(O)c(C(=O)Nc2cccc(Cl)c2)c1=O [Compound 11],0%,95%,48%,31%,–
CN(C(=O)c1c(O)cnn(C)c1=O)c1ccc(Cl)cc1 [Compound 23],–,–,–,–,Test D disease control rating (Phytophthora infestans; 40 ppm): 0%; Test F disease control rating ([1]; 40 ppm): 0%; Test C disease control rating (Botrytis cinerea; 40 ppm): 0%; Test G disease control rating ([2]; 40 ppm): 0%
CCCn1ncc(O)c(C(=O)Nc2ccc(OC(F)(F)F)cc2)c1=O [Compound 4],99%,95%,0%,97%,Test E disease control rating (Zymoseptoria tritici; 200 ppm): 0%
Cn1ncc(OS(=O)(=O)c2ccccc2)c(C(=O)Nc2ccc(OC(F)(F)F)cc2)c1=O [Compound 107],–,–,–,–,"Test D disease control rating (Phytophthora infestans; [3]): 96%; Test E disease control rating (Zymoseptoria tritici; [3]): 71%; Test F disease control rating [1, 3]: 100%; Test C disease control rating (Botrytis cinerea; [3]): 0%; Test G disease control rating [2, 3]: 98%"
Cn1ncc(OS(C)(=O)=O)c(C(=O)Nc2ccc(C(F)(F)F)nc2)c1=O [Compound 94],–,–,–,–,"Test D disease control rating (Phytophthora infestans; [3]): 0%; Test F disease control rating [1, 3]: 99%; Test C disease control rating (Botrytis cinerea; [3]): 0%; Test G disease control rating [2, 3]: 52%; Test A disease control rating (Phakopsora pachyrhizi): 77%"
Cc1cc(Cl)ccc1NC(=O)c1c(O)cnn(C)c1=O [Compound 16],91%,99%,0%,45%,–
Cn1ncc(O)c(C(=O)Nc2ccc3c(c2)OC(F)(F)O3)c1=O [Compound 1],0%,98%,0%,40%,–
Cn1ncc(O)c(C(=O)Nc2cccc(C#N)c2)c1=O [Compound 15],79%,91%,16%,0%,–
Cn1ncc(O)c(C(=O)Nc2ccc(OC(F)(F)F)cc2F)c1=O [Compound 48],–,–,–,–,"Test D disease control rating (Phytophthora infestans; [3]): 97%; Test E disease control rating (Zymoseptoria tritici; [3]): 96%; Test F disease control rating [1, 3]: 99%; Test C disease control rating (Botrytis cinerea; [3]): 62%; Test G disease control rating [2, 3]: 97%"
Cn1ncc(O)c(C(=O)Nc2cccc3cccnc23)c1=O [Compound 19],0%,96%,0%,0%,–
Cn1ncc(O)c(C(=O)Nc2ccc(Cl)cc2)c1=O [Compound 9],0%,99%,0%,96%,–
COc1cnn(C)c(=O)c1C(=O)Nc1ccc(Cl)cc1 [Compound 8],0%,0%,0%,0%,–
Cn1ncc(O)c(C(=O)Nc2ccc(Cl)c(C(F)(F)F)c2)c1=O [Compound 18],0%,83%,0%,46%,–
CCn1ncc(O)c(C(=O)Nc2ccc(Cl)nc2)c1=O [Compound 12],0%,91%,–,93%,–
Cn1ncc(O)c(C(=O)Nc2c(F)cccc2F)c1=O [Compound 20],0%,0%,0%,0%,–
CCn1ncc(O)c(C(=O)Nc2ccc(OC(F)(F)F)cc2)c1=O [Compound 5],50%,84%,10%,32%,Test E disease control rating (Zymoseptoria tritici; 200 ppm): 0%
